US10000507B2, “Furo- and thieno-pyridine carboxamide compounds useful as pim kinase inhibitors” (Incyte Corporation, priority 2013, dated 2018)
pIC50: −log10 of the molar value.

Key:
Type in all cases: biochemical
Pim-1 = Pim-1 (Homo sapiens (Human), UniProt P11309); assay: Pim-1 kinase assay; conditions: 1 mM ATP, biotin-labeled BAD peptide substrate; read-out: Pim1 IC50
Protocol: (§1) Pim-1 and Pim-3 kinase assays-20 μL reactions were run in white 384 well polystyrene plates dotted with 0.8 μL compound/DMSO in the assay buffer (50 mM Tris, pH 7.5, 0.01% Tween-20, 5 mM MgCl2, 0.01% BSA, 5 mM DTT), containing […] Biotin-labeled BAD peptide substrate (AnaSpec 62269), 1 mM ATP, and 2.5 pM (Pim-1, Invitrogen PV3503) or 1.25 pM (Pim-3, Millipore 14-738) enzyme for 1 h at 25° C. Reactions were stopped by addition of 10 μL STOP Buffer (150 mM Tris, pH=7.5, 150 mM NaCl, 75 mM EDTA, 0.01% Tween-20, 0.3% BSA) supplemented with Phospho-Bad (Ser112) Antibody (Cell Signaling 9291) diluted 666-fold, and Streptavidin donor beads (PerkinElmer 6760002) along with Protein-A acceptor beads (PerkinElmer 6760137) at 15 μg/mL each. Supplementation of the STOP buffer with beads and stopping the reactions were done under reduced light. Prior to the stopping reactions STOP buffer with beads was pre-incubated for 1 h in the dark at room temperature. After stopping the reactions, plates were incubated for 1 h in the dark at room temperature before reading on a PHERAstar FS plate reader (BMG Labtech) under reduced light.

Pim-3 = Pim-3 (Homo sapiens (Human), UniProt Q86V86); assay: Pim-3 kinase assay; conditions: 1 mM ATP, biotin-labeled BAD peptide substrate; read-out: Pim3 IC50
Protocol: as §1

Pim-2 = Pim-2 (Homo sapiens (Human), UniProt Q9P1W9); assay: Pim-2 kinase assay; conditions: 1 mM ATP, fluorescein-labeled CREBtide peptide substrate; read-out: Pim2 IC50
Pim-2, sequence (Q9P1W9 whole entry): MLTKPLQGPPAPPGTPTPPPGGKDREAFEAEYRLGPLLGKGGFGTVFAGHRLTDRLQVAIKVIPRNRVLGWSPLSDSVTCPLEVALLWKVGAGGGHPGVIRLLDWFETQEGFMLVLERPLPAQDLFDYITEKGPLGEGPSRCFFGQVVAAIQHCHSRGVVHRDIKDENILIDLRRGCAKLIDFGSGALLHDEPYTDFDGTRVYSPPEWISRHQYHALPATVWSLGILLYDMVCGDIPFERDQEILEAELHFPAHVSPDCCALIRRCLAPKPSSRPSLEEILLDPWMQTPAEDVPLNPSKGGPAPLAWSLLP
Protocol: Pim-2 kinase assay-20 μL reactions were run in white 384 well polystyrene plates dotted with 0.8 μL compound/DMSO in the assay buffer (50 mM Tris, pH 7.5, 0.01% Tween-20, 5 mM MgCl2, 0.01% BSA, 5 mM DTT), containing 0.05 μm Fluorescein-labeled CREBtide peptide substrate (Invitrogen PV3508), 1 mM ATP, and 1 nM enzyme (Invitrogen PV3649) for 2 h at 25° C. Reactions were stopped by addition of 10 μL TR-FRET Dilution Buffer (Invitrogen PV3574) with 30 mM EDTA and 1.5 nM LanthaScreen Tb-CREB pSer133 antibody (Invitrogen PV3566). After 30 min. incubation at room temperature, plates were read on a PHERAstar FS plate reader (BMG Labtech).

Pim-1, sequence (P11309 whole entry): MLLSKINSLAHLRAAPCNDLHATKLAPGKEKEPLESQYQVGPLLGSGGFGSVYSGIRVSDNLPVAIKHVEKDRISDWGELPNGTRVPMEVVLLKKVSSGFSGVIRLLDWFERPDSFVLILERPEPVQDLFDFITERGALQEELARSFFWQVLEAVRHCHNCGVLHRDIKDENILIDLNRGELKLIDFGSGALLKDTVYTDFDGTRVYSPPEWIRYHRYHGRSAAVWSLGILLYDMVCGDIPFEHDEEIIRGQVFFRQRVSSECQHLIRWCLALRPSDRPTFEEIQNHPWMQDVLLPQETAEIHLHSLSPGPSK

Row | Structure (SMILES) | pIC50 (Pim-1) | pIC50 (Pim-3) | pIC50 (Pim-2)
1 | Nc1oc2cc(CCCN3CCOCC3)cnc2c1C(=O)Nc1cnccc1N1C[C@@H](N)C[C@@H](C(F)(F)F)C1 [Example 132, 2-Amino-N-{4-[(3S,5R)-3-amino-5-(trifluoromethyl)piperidin-1-yl]pyridin-3-yl}-6-(3-morpholin-4-ylpropyl)furo[3,2-b]pyridine-3-carboxamide] | ≥ 8.00 | ≥ 8.00 | ≥ 8.00
2 | C[C@H]1CN(c2ccncc2NC(=O)c2c(N)oc3cc(Cl)cnc23)C[C@@H](N)[C@@H]1O [Example 66, 2-amino-N-{4-[(3R,4R,5S)-3-amino-4-hydroxy-5-methylpiperidin-1-yl]pyridin-3-yl}-6-chlorofuro[3,2-b]pyridine-3-carboxamide] | ≥ 8.00 | ≥ 8.00 | 7.00 to 8.00
3 | Nc1oc2cccnc2c1C(=O)Nc1cnccc1[C@H]1C[C@@H](N)C[C@@H](C(F)(F)F)C1 [Example 136, 2-Amino-N-{4-[(1R,3R,5S)-3-amino-5-(trifluoromethyl)cyclohexyl]pyridin-3-yl}furo[3,2-b]pyridine-3-carboxamide] | ≥ 8.00 | ≥ 8.00 | 7.00 to 8.00
4 | C[C@@H]1C[C@H](N)CN(c2sncc2NC(=O)c2c(N)oc3cc(C4CCOCC4)cnc23)C1 [Example 96] | ≥ 8.00 | ≥ 8.00 | 7.00 to 8.00
5 | C[C@@H]1C[C@H](N)CN(c2ccncc2NC(=O)c2c(N)oc3cc(OC(F)F)cnc23)C1 [Example 120, 2-Amino-N-(4-((3S,5R)-3-amino-5-methylpiperidin-1-yl)pyridin-3-yl)-6-(difluoromethoxy)furo[3,2-b]pyridine-3-carboxamide] | ≥ 8.00 | ≥ 8.00 | 7.00 to 8.00
6 | Cc1cncc(NC(=O)c2c(N)oc3cccnc23)c1N1CC[C@H](N)C1 [Example 64, 2-amino-N-{4-[(3S)-3-aminopyrrolidin-1-yl]-5-methylpyridin-3-yl}furo[3,2-b]pyridine-3-carboxamide] | ≥ 8.00 | ≥ 8.00 | 5.70 to 7.00
7 | Nc1oc2cc(Cl)cnc2c1C(=O)Nc1cnccc1N1CCC[C@H](N)C1 [Example 53, 2-amino-N-{4-[(3S)-3-aminopiperidin-1-yl]pyridin-3-yl}-6-chloro-furo[3,2-b]pyridine-3-carboxamide] | ≥ 8.00 | ≥ 8.00 | 7.00 to 8.00
8 | Cc1cncc(NC(=O)c2c(N)oc3cc(Cl)cnc23)c1N1C[C@@H](N)[C@H](O)[C@@H](C)C1 [Example 78, 2-Amino-N-{5-methyl-4-[(3R,4R,5S)-3-amino-4-hydroxy-5-methylpiperidin-1-yl]pyridin-3-yl}-6-chlorofuro[3,2-b]pyridine-3-carboxamide] | ≥ 8.00 | ≥ 8.00 | 7.00 to 8.00
9 | C[C@H]1CN(c2ccncc2NC(=O)c2c(N)oc3cc(CCCF)cnc23)C[C@@H](N)[C@@H]1O [Example 137, 2-Amino-N-(4-((3R,4R,5S)-3-amino-4-hydroxy-5-methylpiperidin-1-yl)pyridin-3-yl)-6-(3-fluoropropyl)furo[3,2-b]pyridine-3-carboxamide] | ≥ 8.00 | ≥ 8.00 | ≥ 8.00
10 | Cn1ncc(NC(=O)c2c(N)oc3cc(C(F)(F)F)cnc23)c1N1CCCC(N)CC1 (stereo not drawn) [Example 56, 2-amino-N-[5-(4-aminoazepan-1-yl)-1-methyl-1H-pyrazol-4-yl]-6-trifluoromethyl-furo[3,2-b]pyridine-3-carboxamide] | ≥ 8.00 | ≥ 8.00 | 7.00 to 8.00
11 | Nc1oc2cc(C3CCOCC3)cnc2c1C(=O)Nc1cnsc1N1C[C@@H](N)C[C@@H](C(F)(F)F)C1 [Example 91, 2-Amino-N-{5-[(3S,5R)-3-amino-5-(trifluoromethyl)piperidin-1-yl]isothiazol-4-yl}-6-(tetrahydro-2H-pyran-4-yl)furo[3,2-b]pyridine-3-carboxamide] | ≥ 8.00 | ≥ 8.00 | 7.00 to 8.00
12 | Cn1ncc(NC(=O)c2c(N)sc3cc(F)cnc23)c1N1CCCC(N)CC1 (stereo not drawn) [Example 37, 2-Amino-N-[5-(4-aminoazepan-1-yl)-1-methyl-1H-pyrazol-4-yl]-6-fluoro-thieno[3,2-b]pyridine-3-carboxamide] | ≥ 8.00 | ≥ 8.00 | 6.00 to 7.00
13 | Cn1cc(-c2cnc3c(C(=O)Nc4cnccc4N4C[C@@H](N)C[C@@H](C(F)(F)F)C4)c(N)oc3c2)cn1 [Example 109, 2-Amino-N-{4-[(3S,5R)-3-amino-5-(trifluoromethyl)piperidin-1-yl]pyridin-3-yl}-6-(1-methyl-1H-pyrazol-4-yl)furo[3,2-b]pyridine-3-carboxamide] | ≥ 8.00 | ≥ 8.00 | 7.00 to 8.00
14 | Cc1cnc2c(C(=O)Nc3cnccc3N3CCC[C@H](N)C3)c(N)oc2c1 [Example 49, 2-amino-N-{4-[(3S)-3-aminopiperidin-1-yl]pyridin-3-yl}-6-methyl-furo[3,2-b]pyridine-3-carboxamide] | ≥ 8.00 | ≥ 8.00 | 7.00 to 8.00
15 | Nc1oc2cc(C(F)(F)F)cnc2c1C(=O)Nc1cnccc1N1C[C@@H](N)C[C@@H](C(F)(F)F)C1 [Example 61, 2-amino-N-{4-[(3S,5R)-3-amino-5-(trifluoromethyl)piperidin-1-yl]pyridin-3-yl}-6-trifluoromethyl-furo[3,2-b]pyridine-3-carboxamide] | ≥ 8.00 | ≥ 8.00 | 7.00 to 8.00
16 | COCc1cnc2c(C(=O)Nc3cnccc3N3CCC[C@H](N)C3)c(N)sc2c1 [Example 34, 2-Amino-N-{4-[(3S)-3-aminopiperidin-1-yl]pyridin-3-yl}-6-(methoxymethyl)thieno[3,2-b]pyridine-3-carboxamide] | ≥ 8.00 | ≥ 8.00 | 6.00 to 7.00
17 | Nc1oc2cc(CN3CC[C@H](F)C3)cnc2c1C(=O)Nc1cnccc1N1C[C@@H](N)C[C@@H](C(F)(F)F)C1 [Example 106, 2-Amino-N-{4-[(3S,5R)-3-amino-5-(trifluoromethyl)piperidin-1-yl]pyridin-3-yl}-6-{[(3S)-3-fluoropyrrolidin-1-yl]methyl}furo[3,2-b]pyridine-3-carboxamide] | ≥ 8.00 | ≥ 8.00 | 7.00 to 8.00
18 | Cn1ncc(NC(=O)c2c(N)sc3ccc(-c4ccccc4)nc23)c1N1CCCC(N)CC1 (stereo not drawn) [Example 44, 2-Amino-N-[5-(4-aminoazepan-1-yl)-1-methyl-1H-pyrazol-4-yl]-5-phenylthieno[3,2-b]pyridine-3-carboxamide] | ≥ 8.00 | ≥ 8.00 | < 5.70
19 | Nc1sc2cccnc2c1C(=O)Nc1cnsc1N1CCC[C@H](N)C1 [Example 88, 2-Amino-N-{5-[(3S)-3-aminopiperidin-1-yl]isothiazol-4-yl}thieno[3,2-b]pyridine-3-carboxamide] | ≥ 8.00 | ≥ 8.00 | 6.00 to 7.00
20 | Cn1ncc(NC(=O)c2c(N)sc3cc(-c4nccs4)cnc23)c1N1CCCC(N)CC1 (stereo not drawn) [Example 30, 2-Amino-N-[5-(4-aminoazepan-1-yl)-1-methyl-1H-pyrazol-4-yl]-6-(1,3-thiazol-2-yl)-thieno[3,2-b]pyridine-3-carboxamide] | ≥ 8.00 | ≥ 8.00 | 7.00 to 8.00
21 | C[C@H]1CN(c2ccncc2NC(=O)c2c(N)sc3cc(NC(=O)C4CC4)cnc23)C[C@@H](N)[C@@H]1O [Example 142, 2-Amino-N-(4-((3R,4R,5S)-3-amino-4-hydroxy-5-methylpiperidin-1-yl)pyridin-3-yl)-6-(cyclopropanecarboxamido)thieno[3,2-b]pyridine-3-carboxamide] | ≥ 8.00 | ≥ 8.00 | 7.00 to 8.00
22 | Cn1ncc(NC(=O)c2c(N)sc3ccc(Cl)nc23)c1N1CCCC(N)CC1 (stereo not drawn) [Example 39, 2-Amino-N-[5-(4-aminoazepan-1-yl)-1-methyl-1H-pyrazol-4-yl]-5-chlorothieno[3,2-b]pyridine-3-carboxamide] | ≥ 8.00 | ≥ 8.00 | 6.00 to 7.00
23 | CN1CCC(c2cnc3c(C(=O)Nc4cnn(C)c4N4C[C@@H](N)C[C@@H](C(F)(F)F)C4)c(N)oc3c2)CC1 [Example 94, 2-Amino-N-{5-[(3S,5R)-3-amino-5-(trifluoromethyl)piperidin-1-yl]-1-methyl-1H-pyrazol-4-yl}-6-(1-methylpiperidin-4-yl)furo[3,2-b]pyridine-3-carboxamide] | ≥ 8.00 | ≥ 8.00 | 7.00 to 8.00
